Test results from patent publication US20210087217A1, “NUCLEOTIDE HEMI-SULFATE SALT FOR THE TREATMENT OF HEPATITIS C VIRUS” (Atea Pharmaceuticals, Inc., priority 2017, published 2021).
Where a name gives a salt, the structure may show the parent alone.

Assay: Chemical stability of Compound 2 at 25 and 40° C. over 6 months
Assay type: physicochemical
Description: The container closure system for the study was a combination medicinal valve bag with a pharmaceutical laminated film over the pouch and desiccant silica gel between the two layers. […] Bags were then stored at 25° C./60% RH (relative humidity) and 40° C./75% RH (relative humidity). Organic purity, water content, ^1HNMR, DSC and Raman were measured at Time 0, Month 1, Month 2, Month 3 and Month 6.
The sample was dissolved in acetonitrile-water (90:10) (v/v). The gradient method is shown below.
At 25° C., the percent of degradation product increased from 0.03% at Day 0 to 0.08% after 6 months. At 40° C., the percent of degradation product increased from 0.03% to 0.39%. Over the course of 6 months, the percent of water increased approximately 0.6% at 25° C. and increased approximately 0.7% at 40° C.

CNc1nc(N)nc2c1ncn2[C@@H]1O[C@H](CO[P@@](=O)(N[C@@H](C)C(=O)OC(C)C)Oc2ccccc2)[C@@H](O)[C@@]1(C)F [Compound 2, hemi-sulfate salt of isopropyl((S)-(((2R,3R,4R,5R)-5-(2-amino-6-(methylamino)-9H-purin-9-yl)-4-fluoro-3-hydroxy-4-methyltetrahydrofuran-2-yl)methoxy)(phenoxy)phosphoryl)-L-alaninate]
99.63%: Percent Purity (40° C./75% RH, Month 2)
0.14%: Maximum Impurity Percent (40° C./75% RH, Month 6)
The same as: 1HNMR compared with Day 0 (25° C./60% RH, Month 1) | DSC compared with Day 0 (25° C./60% RH, Month 1) | Raman compared with Day 0 (25° C./60% RH, Month 1) | 1HNMR compared with Day 0 (25° C./60% RH, Month 2) | DSC compared with Day 0 (25° C./60% RH, Month 2) | Raman compared with Day 0 (25° C./60% RH, Month 2) | 1HNMR compared with Day 0 (25° C./60% RH, Month 3) | DSC compared with Day 0 (25° C./60% RH, Month 3) | Raman compared with Day 0 (25° C./60% RH, Month 3) | 1HNMR compared with Day 0 (25° C./60% RH, Month 6) | DSC compared with Day 0 (25° C./60% RH, Month 6) | Raman compared with Day 0 (25° C./60% RH, Month 6) | 1HNMR compared with Day 0 (40° C./75% RH, Month 1) | DSC compared with Day 0 (40° C./75% RH, Month 1) | Raman compared with Day 0 (40° C./75% RH, Month 1) | 1HNMR compared with Day 0 (40° C./75% RH, Month 2) | DSC compared with Day 0 (40° C./75% RH, Month 2) | Raman compared with Day 0 (40° C./75% RH, Month 2) | 1HNMR compared with Day 0 (40° C./75% RH, Month 3) | DSC compared with Day 0 (40° C./75% RH, Month 3) | Raman compared with Day 0 (40° C./75% RH, Month 3) | 1HNMR compared with Day 0 (40° C./75% RH, Month 6) | DSC compared with Day 0 (40° C./75% RH, Month 6) | Raman compared with Day 0 (40° C./75% RH, Month 6)
99.71%: Percent Purity (40° C./75% RH, Month 1)
minimal: Rate of degradation (stored for 6 months at 25 and 40° C.)
0.12%: Maximum Impurity Percent (25° C./60% RH, Day 0) | Maximum Impurity Percent (25° C./60% RH, Month 1) | Maximum Impurity Percent (25° C./60% RH, Month 2) | Maximum Impurity Percent (25° C./60% RH, Month 3) | Maximum Impurity Percent (40° C./75% RH, Day 0) | Maximum Impurity Percent (40° C./75% RH, Month 1) | Maximum Impurity Percent (40° C./75% RH, Month 2) | Maximum Impurity Percent (40° C./75% RH, Month 3)
99.58%: Percent Purity (40° C./75% RH, Month 3)
99.77%: Percent Purity (25° C./60% RH, Month 1)
1.8%: Percent Water (25° C./60% RH, Month 2) | Percent Water (25° C./60% RH, Month 3) | Percent Water (25° C./60% RH, Month 6)
99.75%: Percent Purity (25° C./60% RH, Month 2) | Percent Purity (25° C./60% RH, Month 3)
1.9%: Percent Water (25° C./60% RH, Month 1) | Percent Water (40° C./75% RH, Month 2) | Percent Water (40° C./75% RH, Month 3) | Percent Water (40° C./75% RH, Month 6)
2.0%: Percent Water (40° C./75% RH, Month 1)
approximately 0.6%: Increase of the percent of water over 6 months (25° C.)
1.2%: Percent Water (25° C./60% RH, Day 0) | Percent Water (40° C./75% RH, Day 0)
99.74%: Percent Purity (25° C./60% RH, Month 6)
99.82%: Percent Purity (25° C./60% RH, Day 0) | Percent Purity (40° C./75% RH, Day 0)
99.30%: Percent Purity (40° C./75% RH, Month 6)
approximately 0.7%: Increase of the percent of water over 6 months (40° C.)
0.13%: Maximum Impurity Percent (25° C./60% RH, Month 6)
